PMC10974272, “Cytotoxic and Antiproliferative Activity of LASSBio-2208 and the Attempts to Determine Its Drug Metabolism and Pharmacokinetics In Vitro Profile” (Pharmaceuticals, 2024)

Columns and labels:
[1] = PBMC viability assay by MTT; assay type: cell-based, human; conditions: MTT 48 h, non-tumour human PBMC
Protocol: (§1) The SI indicates how selective a compound is for a tumour cell line compared with a non-tumour cell line.
(§2) Human peripheral blood mononuclear cells (PBMCs) were used to determine the selectivity index (SI) and were obtained from healthy volunteers under a protocol approved by the Ethics Committee CAAE: 38257914.7.0000.5259. Immortalized cells were also obtained from the Rio de Janeiro Cell Bank (BCRJ).
(§3) First, 8 mL of blood from each healthy donor (3 people) was collected in a tube with EDTA in a 1:20 ratio to prevent the blood from clotting. In a 15 mL Falcon tube containing 4 mL of Ficoll-Paque, the 8 mL of blood collected was slowly added, letting it fall down the walls of the tube. It was centrifuged (Universal Centrifuge 320R Hettich) for 40 min at 750× g at 21 °C with acceleration 1 and brake 0. After centrifugation, in order to extract the ring of mononuclear cells, the supernatant above it was first carefully discarded so as not to disturb the ring. The ring was then slowly removed and placed in another 15 mL Falcon tube to which pure RPMI-1640 medium was added in a 1:1 ratio and centrifuged for 10 min at 580× g and 21 °C with acceleration 8 and brake 9 [34, 35].
(§4) The supernatant was discarded, and the pellet was resuspended in 1 mL of RPMI-1640 medium supplemented with 10% SBF and 1% antibiotic. An amount of 20 µL of cells were taken from the mixture and added to 380 µL of trypan blue dye for counting in the Neubauer chamber. Considering that 80% of PBMCs are lymphocytes and the rest are monocytes, the cells were plated with the aim of having 10^5 cell/well.

[2] = test system: human peripheral blood mononuclear cells (hPBMC); experiment: PBMC viability assay by MTT; assay type: cell-based; conditions: MTT 48 h; for Emax: human PBMC, maximum cytotoxic response at 100 µM; for CC50: non-tumour human PBMC
Protocol: as §1, §2, §3, §4

PAMPA—BBB = assay type: in vitro ADME; set-up: key to Classification BBB: permeable (CNS+); non-permeable (CNS−); conditions: for Papp: read-out: Pe. Exp. BBB
Protocol: To obtain information on the permeability potential of LASSBio-2208 on cell membranes, this derivative was tested using the parallel artificial membrane permeability assay (PAMPA) that is used as an in vitro model of passive diffusion and transcellular permeation. In this model, the permeability across two artificial membranes is measured: brain lipid from pig extract in dodecane (called PAMPA—BBB) and L-α soy phosphatidylcholine in dodecane (called PAMPA—TGI).
To perform the permeability assay we used a donor plate where the compounds (tests or controls) are diluted in a buffered medium, characterized by the presence of a synthetic membrane of polyvinylidene fluoride (PVDF) impregnated with a lipid solution, forming a barrier through which the compounds migrate through a diffusion process to the lower plate called the receptor.
The lipid mixture that impregnates the filter has a different constitution for the permeability tests for the blood–brain barrier (brain lipid from pig extract in dodecane) and gastrointestinal tract (L-α soy phosphatidylcholine in dodecane). In the PAMPA—BBB and PAMPA—GIT assays, the optical density values obtained in the reading at each selected wavelength, for each of the compounds were analysed in comparison with the values of several controls. In the case of the BBB, these values were used to elaborate an equation and determine the permeability coefficient (Pe), using a previously elaborated spreadsheet, and, for the PAMPA—GIT, these values were used to determine the absorbed fraction (Fa%), both using the Excel program. The permeability result for PAMPA—GIT classifies the compounds according to the percentage of absorbed fraction (Fa%), as follows: high intestinal permeability (70–100%), medium permeability (30–69%) or low permeability (0–29%), and the samples were diluted from a stock solution of 10 mM. The PAMPA—BBB model classifies the compounds only as follows: permeable (CNS+) or non-permeable (CNS−) and the assays were made from a stock solution of 1 mg for each compound [25, 40, 41, 42].

Plasma stability = assay type: in vitro ADME, rat; conditions: for recovery at 10 μM / half-life at 10 μM: rat plasma diluted with phosphate buffer, pH 7.4; for recovery at 10 μM: rat plasma stability assay; for metabolic stability in rat plasma (in words) / half-life at 10 μM / Elimination Rate Constant (k) / Metabolization Rate: rat plasma; for half-life at 10 μM / Elimination Rate Constant (k) / Metabolization Rate: 37 °C, 10 μM; for Metabolization Rate: 0–240 min
Protocol: Considering that both LASSBio-2208 and LASSBio-1911 have, in their structures, the N-acylhydrazone and hydroxamic acid fragments, both susceptible to metabolic hydrolysis, metabolic stability in plasma was conducted with both compounds.
LASSBio-2208 and LASSBio-1911, in a final concentration of 10 μM from stock solution of 1 mM, was added in 50 μL of rat plasma solution diluted in 250 μL with phosphate buffer (pH 7.4) and was placed in a shaker at 37 °C under vigorous stirring for 0, 30, 60, 120 and 240 min. After each reaction time, 1 mL of cold acetonitrile containing 2 uM internal standard was added to the wells to stop the reaction. The solution was mixed and centrifuged at 24,500× g for 15 min (Universal Centrifuge 320R Hettich). The supernatant (1 mL) was filtrated and placed in vials to be analysed by HPLC.

[3] = Non-specific microsome protein binding; assay type: in vitro ADME; conditions: for fraction unbound at 60 min, 8.3 µM: rat, pH 7.4, liver microsomes 0.5 mg protein/mL, 37 °C, read-out: Percentage of ƒu(mic) (unbound fraction in nonspecific microsomal binding)
Protocol: Once such bonds are formed, the bound fraction would become incapable of being metabolized.
Liver microsomes were diluted with PBS pH 7.4 to a concentration of 0.5 mg protein/mL and 3 µL at 1 mM of the working test compound and solutions were mixed with 357 µL of liver microsome suspension. After mixing, duplicate 200 µL aliquots were immediately removed, while another microtubule acted as the control sample (T 0 h), and were quenched with 400 µL of cold acetonitrile containing analytical internal standards. The other samples were incubated at 37 °C at 100 rpm, for 60 min with the same subsequent treatment.

[4] = test system: human prostate cancer cell line (PC-3); experiment: MTT cell viability assay, PC-3; conditions: Homo sapiens
Protocol: (§5) After the incubation time, the plate was centrifuged (Universal centrifuge 320R Hettich, Kirchlengern, Germany) at 440× g, 10 min and 4 °C, then 110 µL of supernatant was removed and 10 µL of MTT solution was added and left to incubate for 3.5 h in the oven at 37 °C and 5% CO2. […] The CC50 was calculated using the GraphPad Prism 9.0 program. Each sample was tested in triplicate in three independent experiments (N3) [32, 33].

[5] = test system: T lymphoblast cell line (MOLT-4); experiment: MTT cell viability assay, MOLT-4; conditions: Homo sapiens
Protocol: as §5

MCF-7 = experiment: SRB cell viability/antiproliferative assay, MCF-7; conditions: Homo sapiens, MCF7, 48 h; for Emax: SRB 48 h, MCF-7, maximum effect at maximum concentration used
MOLT-4 = experiment: SRB cell viability/antiproliferative assay, MOLT-4; conditions: Homo sapiens, MOLT-4, 48 h

Compound	CC50 at 48 h [1] [µM]	Emax [2] [%]	CC50 [2]	Classification BBB (PAMPA—BBB)	Papp (PAMPA—BBB) [×10⁻⁶ cm/s]	metabolic stability in rat plasma (in words) (Plasma stability)	recovery at 10 μM (Plasma stability) [%]	half-life at 10 μM (Plasma stability) [h]	Elimination Rate Constant (k) (Plasma stability)	Metabolization Rate (Plasma stability) [%]	fraction unbound at 60 min, 8.3 µM [3]	CC50 ([4]; 24 h) [µM]	Emax ([4]; 24 h) [%]	CC50 ([4]; 48 h) [µM]	Emax ([4]; 48 h) [%]	CC50 ([4]; 72 h) [µM]	Emax ([4]; 72 h) [%]	CC50 ([5]; MOLT-4, 24 h) [µM]	Emax ([5]; MOLT-4, 24 h) [%]	CC50 ([5]; MOLT-4, 48 h) [µM]	other results
CN(C)c1ccc(C(=O)N/N=C/c2ccc(C(=O)NO)cc2)cc1 [LASSBio-1911]	> 100	31.1	no cytotoxic effect	CNS−	0.29	high metabolic stability	73.4	6.42	0.0018	36.14	0.004	> 100	26.4	> 100	42.6	77.1	59.2	13.8	96.5	6.15	Emax ([5]; MOLT-4, 48 h): 98.9%; CC50 ([5]; MOLT-4, 72 h): 5.27 µM; Emax ([5]; MOLT-4, 72 h): 99.2%; CC50 (MCF-7): 39.1 µM; Emax (MCF-7): > 80%; CC50 (MOLT-4): 53.1 µM; Emax (MOLT-4): 61%
O=C(NO)c1ccc(/C=N/NC(=O)c2cc(N3CCOCC3)nc(-c3cccc(O)c3)n2)cc1 [LASSBio-2208]	> 100	29.9	no cytotoxic effect	CNS−	0.69	high metabolic stability	75.5	14.4	0.0008	20.61	0.937	> 100	18.4	> 100	39.3	> 100	42.1	7.14	84.1	8.26	Pe. Exp. BBB (PAMPA—BBB): low permeation; unbound in nonspecific microsomal binding ([3]; liver microsomes): more than 93%; Emax ([5]; MOLT-4, 48 h): 83.2%; CC50 ([5]; MOLT-4, 72 h): 7.15 µM; Emax ([5]; MOLT-4, 72 h): 91.2%; CC50 (MCF-7): 5.44 µM; Emax (MCF-7): 67.4%; CC50 (MOLT-4): > 100 µM
